ChEMBL document CHEMBL5303573, “Mapping human microbiome drug metabolism by gut bacteria and their genes” (Nature, 2019)

Experiments:
[1] = The drug is tested on Alistipes indistinctus strain: DSM22520 for biotransformation. The drug concentrations were measured before and after a 12-h incubation by liquid-chromatography-coupled mass spectrometry (LC–MS); settings: 2 µM
[2] = The drug is tested on Eubacterium hallii strain: DSM3353 for biotransformation. The drug concentrations were measured before and after a 12-h incubation by liquid-chromatography-coupled mass spectrometry (LC–MS); settings: anaerobutyricum hallii, 2 µM
[3] = bacteroides fragilis, 12 h, 2 µM
Description: The drug is tested on Bacteroides fragilis strain: DS-208 for biotransformation. The drug concentrations were measured before and after a 12-h incubation by liquid-chromatography-coupled mass spectrometry (LC–MS)

[4] = The drug is tested on Clostridium scindens strain: ATCC35704 for biotransformation. The drug concentrations were measured before and after a 12-h incubation by liquid-chromatography-coupled mass spectrometry (LC–MS); settings: 2 µM
[5] = bacteroides thetaiotaomicron, 12 h, 2 µM
Description: The drug is tested on Bacteroides thetaiotaomicron strain: 3731 for biotransformation. The drug concentrations were measured before and after a 12-h incubation by liquid-chromatography-coupled mass spectrometry (LC–MS)

[6] = parabacteroides distasonis, 12 h, 2 µM
Description: The drug is tested on Parabacteroides distasonis strain: ATCC8503 for biotransformation. The drug concentrations were measured before and after a 12-h incubation by liquid-chromatography-coupled mass spectrometry (LC–MS)

[7] = bacteroides stercoris, 12 h, 2 µM
Description: The drug is tested on Bacteroides stercoris strain: ATCC43183 for biotransformation. The drug concentrations were measured before and after a 12-h incubation by liquid-chromatography-coupled mass spectrometry (LC–MS)

[8] = The drug is tested on Ruminococcus gnavus strain: ATCC29149 for biotransformation. The drug concentrations were measured before and after a 12-h incubation by liquid-chromatography-coupled mass spectrometry (LC–MS); settings: mediterraneibacter gnavus, 2 µM
[9] = The drug is tested on Anaerococcus hydrogenalis strain: DSM7454 for biotransformation. The drug concentrations were measured before and after a 12-h incubation by liquid-chromatography-coupled mass spectrometry (LC–MS); settings: 2 µM
[10] = The drug is tested on Anaerotruncus colihominis strain: DSM17241 for biotransformation. The drug concentrations were measured before and after a 12-h incubation by liquid-chromatography-coupled mass spectrometry (LC–MS); settings: 2 µM
[11] = parabacteroides johnsonii, 12 h, 2 µM
Description: The drug is tested on Parabacteroides johnsonii strain: DSM18315 for biotransformation. The drug concentrations were measured before and after a 12-h incubation by liquid-chromatography-coupled mass spectrometry (LC–MS)

[12] = The drug is tested on Eubacterium ventriosum strain: ATCC27560 for biotransformation. The drug concentrations were measured before and after a 12-h incubation by liquid-chromatography-coupled mass spectrometry (LC–MS); format: ADME; parameters: dose 2 uM, timepoint 0 vs 12 hours; settings: 2 µM
[13] = The drug is tested on Ruminococcus lactaris strain: ATCC29176 for biotransformation. The drug concentrations were measured before and after a 12-h incubation by liquid-chromatography-coupled mass spectrometry (LC–MS); settings: 2 µM
[14] = The drug is tested on Bifidobacterium breve strain: DSM20213 for biotransformation. The drug concentrations were measured before and after a 12-h incubation by liquid-chromatography-coupled mass spectrometry (LC–MS); settings: 2 µM
[15] = The drug is tested on Bacteroides vulgatus strain: ATCC8482 for biotransformation. The drug concentrations were measured before and after a 12-h incubation by liquid-chromatography-coupled mass spectrometry (LC–MS); settings: phocaeicola vulgatus, 2 µM
[16] = The drug is tested on Enterobacter cancerogenus strain: ATCC35316 for biotransformation. The drug concentrations were measured before and after a 12-h incubation by liquid-chromatography-coupled mass spectrometry (LC–MS); settings: 2 µM
[17] = The drug is tested on Bacteroides finegoldii strain: DSM17565 for biotransformation. The drug concentrations were measured before and after a 12-h incubation by liquid-chromatography-coupled mass spectrometry (LC–MS); settings: 2 µM
[18] = bacteroides fragilis, 12 h, 2 µM; remark: listed apart in the source
Description: The drug is tested on Bacteroides fragilis strain: 3397 (T10) for biotransformation. The drug concentrations were measured before and after a 12-h incubation by liquid-chromatography-coupled mass spectrometry (LC–MS)

[19] = The drug is tested on Bacteroides coprophilus strain: DSM18228 for biotransformation. The drug concentrations were measured before and after a 12-h incubation by liquid-chromatography-coupled mass spectrometry (LC–MS); settings: 2 µM
[20] = The drug is tested on Bacteroides cellulosilyticus strain: DSM14838 for biotransformation. The drug concentrations were measured before and after a 12-h incubation by liquid-chromatography-coupled mass spectrometry (LC–MS); settings: 2 µM

Bacterial Biotransformation [1]: Compound metabolized
Bacterial Biotransformation [2]: Compound NOT metabolized
Bacterial Biotransformation [3]: Compound metabolized
Bacterial Biotransformation [4]: Compound NOT metabolized
Bacterial Biotransformation [5]: Compound metabolized
Bacterial Biotransformation [6]: Compound metabolized
Bacterial Biotransformation [7]: Compound metabolized
Bacterial Biotransformation [8]: Compound NOT metabolized
Bacterial Biotransformation [9]: Compound NOT metabolized
Bacterial Biotransformation [10]: Compound NOT metabolized
Bacterial Biotransformation [11]: Compound metabolized
Bacterial Biotransformation [12]: Compound NOT metabolized
Bacterial Biotransformation [13]: Compound NOT metabolized
Bacterial Biotransformation [14]: Compound NOT metabolized
Bacterial Biotransformation [15]: Compound metabolized
Bacterial Biotransformation [16]: Compound NOT metabolized
Bacterial Biotransformation [17]: Compound metabolized
Bacterial Biotransformation [18]: Compound metabolized
Bacterial Biotransformation [19]: Compound metabolized
Bacterial Biotransformation [20]: Compound metabolized
Structure (SMILES): CC(=O)OCC(CCn1cnc2cnc(N)nc21)COC(C)=O [FAMCICLOVIR]
